Tests used:
[1] = system: Bovine aortic endothelial cells (BAEC); experiment: Cytotoxicity, WST cell viability; type: cell-based; conditions: 24 hours, BHB content from 0 to 25.4 mM
Description: Bovine aortic endothelial cells (BAEC) (available from RIKEN (RIKEN, Tsukuba, Japan)) were pre-seeded on a 96 well (well) plate and incubated with either Nano^BHB or BHB at different concentrations with a BHB content of from 0 to 25.4 mM in a medium. After 24 hours, the medium was discarded, followed by addition of 100 µL of medium containing 10 µL of WST agent and incubation for 4 hours. In a final process, cell viability was measured based on a ratio of optical signals of a subject well and a water treatment group well at a wavelength of 450 nm in each well.

[2] = system: cisplatin-induced acute kidney injury (AKI); experiment: Protective effect on acute kidney injury by subcutaneous injection; type: in vivo, C57BL/6J male mice; conditions: subcutaneous injection about 250 mg in terms of BHB/kg, 6 hours prior to cisplatin 20 mg/kg; 72 hours after challenge
Description: C57BL/6J male mice (8 weeks old) were divided into four groups for use in different treatments. Acute kidney injury was induced by intraperitoneal injection of cisplatin (20 mg/kg). A mouse was pretreated with subcutaneous injection of physiological saline (n = 11) or sodium β-hydroxybutyrate (at a dose in terms of BHB/kg of about 250 mg, n = 1) or Nano^BHB (at a dose in terms of BHB/kg of about 250 mg, n = 10) 6 hours prior to exposure to cisplatin. The healthy group (n = 8) was injected with physiological saline instead of cisplatin. 72 hours after the cisplatin challenge, the mouse was sacrificed, and blood plasma and kidney were collected. Renal function was assessed by measuring the levels of blood urea nitrogen (BUN), creatinine (CRE), aspartate transaminase (AST). […] In the figure, (A) represents a scheme of animal experiment, (B) is a graphical representation of data on blood urea nitrogen in plasma of an AKI mouse 3 days after injection of cisplatin, (C) is a graphical representation of data on creatinine, (D) is a graphical representation of data on aspartate transaminase, (E) is a presentation image of periodic acid Schiff (PAS) staining at 20 fold magnification of kidney tissue, and (F) is a graph summarizing data of the result of quantitative measurement of a damaged region of the kidney from a stained image. […]

SMILES: CC(O)CC(=O)[O-].[Na+] (stereo not drawn) [sodium β-hydroxybutyrate]
- survival rate and morphology of the BAEC cells [1]: do not affect
- Effect against cisplatin-induced acute kidney injury (BUN, CRE, AST, PAS staining) [2]: no decrease in renal function is observed

From patent EP4741439A1, “BLOCK COPOLYMER CONTAINING REPEATING UNIT OF POLY([R, S]BETA-HYDROXYBUTYRATE), NANOPARTICLES FORMED FROM SAID COPOLYMER, AND PRODUCTION AND USE OF THOSE” (University of Tsukuba, priority 2023, dated 2025)
